Measured values from patent US7396837B2, “Antitumoral analogs of lamellarins” (Pharma Mar, S.A.U., priority 2002, dated 2008).

What follows are compounds tested on LNCaP (assay: SRB colorimetric cell growth inhibition assay, LNCaP). Conditions: Homo sapiens, LNCaP, LN-caP; GI=growth inhibition; read-out: GI50 LN-caP.
Format: cell-based
In short: (§1)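 Growth inhibition (GI), cytostatic total growth inhibition (TGI) and cytotoxic cell-kill (LC) parameters were calculated from SRB-stained cultures held under constant compound exposure, triplicates averaged.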

| SMILES | GI50 |
| --- | --- |
| COc1cc2c(cc1O)CCn1c-2c(Br)c2c3cc(OC)c(O)cc3oc(=O)c21 [Compound 188] | 3.3 µM |

Same assay, conditions: Homo sapiens, LNCaP, LN-caP; cell killing (cytotoxic effect); read-out: LC50 LN-caP

| SMILES | CC50 |
| --- | --- |
| COc1cc2c(cc1O)CCn1c-2c(Br)c2c3cc(OC)c(O)cc3oc(=O)c21 [Compound 188] | 21.8 µM |

Same assay, conditions: Homo sapiens, LNCaP, LN-caP; total growth inhibition (cytostatic effect); read-out: TGI LN-caP

| SMILES | IC (TGI) |
| --- | --- |
| COc1cc2c(cc1O)CCn1c-2c(Br)c2c3cc(OC)c(O)cc3oc(=O)c21 [Compound 188] | 21.8 µM |

The compounds below were run on HeLa-APL (assay: SRB colorimetric cell growth inhibition assay, HeLa-APL (aplidine resistant)). Conditions: Homo sapiens, HELA-APL; GI=growth inhibition; read-out: GI50 HELA-APL.
Format: cell-based
In short: as §1

| SMILES | GI50 |
| --- | --- |
| COc1cc2c(cc1O)CCn1c-2c(Br)c2c3cc(OC)c(O)cc3oc(=O)c21 [Compound 188] | 0.984 µM |

Same assay, conditions: Homo sapiens, HELA-APL; cell killing (cytotoxic effect); read-out: LC50 HELA-APL

| SMILES | CC50 |
| --- | --- |
| COc1cc2c(cc1O)CCn1c-2c(Br)c2c3cc(OC)c(O)cc3oc(=O)c21 [Compound 188] | 15.8 µM |

Same assay, conditions: Homo sapiens, HELA-APL; total growth inhibition (cytostatic effect); read-out: TGI HELA-APL

| SMILES | IC (TGI) |
| --- | --- |
| COc1cc2c(cc1O)CCn1c-2c(Br)c2c3cc(OC)c(O)cc3oc(=O)c21 [Compound 188] | 31.6 µM |

What follows are compounds tested on PANC-1 (assay: SRB colorimetric cell growth inhibition assay, PANC-1). Conditions: Homo sapiens, PANC-1, PANC-1; GI=growth inhibition; read-out: GI50 PANC-1.
Format: cell-based
In short: as §1

| SMILES | GI50 |
| --- | --- |
| COc1cc2c(cc1O)CCn1c-2c(Br)c2c3cc(OC)c(O)cc3oc(=O)c21 [Compound 188] | 5.56 µM |

Same assay, conditions: Homo sapiens, PANC-1, PANC-1; cell killing (cytotoxic effect); read-out: LC50 PANC-1

| SMILES | CC50 |
| --- | --- |
| COc1cc2c(cc1O)CCn1c-2c(Br)c2c3cc(OC)c(O)cc3oc(=O)c21 [Compound 188] | 21.8 µM |

Same assay, conditions: Homo sapiens, PANC-1, PANC-1; total growth inhibition (cytostatic effect); read-out: TGI PANC-1

| SMILES | IC (TGI) |
| --- | --- |
| COc1cc2c(cc1O)CCn1c-2c(Br)c2c3cc(OC)c(O)cc3oc(=O)c21 [Compound 188] | 21.8 µM |

The compounds below were run on K-562 (assay: SRB colorimetric cell growth inhibition assay, K-562). Conditions: Homo sapiens, K562, K-562; GI=growth inhibition; read-out: GI50 K-562.
Format: cell-based
In short: as §1

| SMILES | GI50 |
| --- | --- |
| COc1cc2c(cc1O)CCn1c-2c(Br)c2c3cc(OC)c(O)cc3oc(=O)c21 [Compound 188] | 0.908 µM |

Same assay, conditions: Homo sapiens, K562, K-562; cell killing (cytotoxic effect); read-out: LC50 K-562

| SMILES | CC50 |
| --- | --- |
| COc1cc2c(cc1O)CCn1c-2c(Br)c2c3cc(OC)c(O)cc3oc(=O)c21 [Compound 188] | 21.8 µM |

Same assay, conditions: Homo sapiens, K562, K-562; total growth inhibition (cytostatic effect); read-out: TGI K-562

| SMILES | IC (TGI) |
| --- | --- |
| COc1cc2c(cc1O)CCn1c-2c(Br)c2c3cc(OC)c(O)cc3oc(=O)c21 [Compound 188] | 4.02 µM |

The compounds below were run on LoVo-Dox (assay: SRB colorimetric cell growth inhibition assay, LoVo-Dox (MDR)). Conditions: Homo sapiens, LOVO-DOX; GI=growth inhibition; read-out: GI50 LOVO-DOX.
Format: cell-based
In short: as §1

| SMILES | GI50 |
| --- | --- |
| COc1cc2c(cc1O)CCn1c-2c(Br)c2c3cc(OC)c(O)cc3oc(=O)c21 [Compound 188] | 1.3 µM |

Same assay, conditions: Homo sapiens, LOVO-DOX; cell killing (cytotoxic effect); read-out: LC50 LOVO-DOX

| SMILES | CC50 |
| --- | --- |
| COc1cc2c(cc1O)CCn1c-2c(Br)c2c3cc(OC)c(O)cc3oc(=O)c21 [Compound 188] | 21.8 µM |

Same assay, conditions: Homo sapiens, LOVO-DOX; total growth inhibition (cytostatic effect); read-out: TGI LOVO-DOX

| SMILES | IC (TGI) |
| --- | --- |
| COc1cc2c(cc1O)CCn1c-2c(Br)c2c3cc(OC)c(O)cc3oc(=O)c21 [Compound 188] | 21.8 µM |

Each compound was assayed on IGROV (assay: SRB colorimetric cell growth inhibition assay, IGROV). Conditions: Homo sapiens, IGROV; GI=growth inhibition; read-out: GI50 IGROV.
Format: cell-based
In short: as §1

| SMILES | GI50 |
| --- | --- |
| COc1cc2c(cc1O)CCn1c-2c(Br)c2c3cc(OC)c(O)cc3oc(=O)c21 [Compound 188] | 5.37 µM |

Same assay, conditions: Homo sapiens, IGROV; cell killing (cytotoxic effect); read-out: LC50 IGROV

| SMILES | CC50 |
| --- | --- |
| COc1cc2c(cc1O)CCn1c-2c(Br)c2c3cc(OC)c(O)cc3oc(=O)c21 [Compound 188] | 21.8 µM |

Same assay, conditions: Homo sapiens, IGROV; total growth inhibition (cytostatic effect); read-out: TGI IGROV

| SMILES | IC (TGI) |
| --- | --- |
| COc1cc2c(cc1O)CCn1c-2c(Br)c2c3cc(OC)c(O)cc3oc(=O)c21 [Compound 188] | 20.2 µM |

The compounds below were run on SK-BR-3 (assay: SRB colorimetric cell growth inhibition assay, SK-BR-3). Conditions: Homo sapiens, SK-BR-3, SK-BR-3; GI=growth inhibition; read-out: GI50 SK-BR-3.
Format: cell-based
In short: as §1

| SMILES | GI50 |
| --- | --- |
| COc1cc2c(cc1O)CCn1c-2c(Br)c2c3cc(OC)c(O)cc3oc(=O)c21 [Compound 188] | 3.6 µM |

Same assay, conditions: Homo sapiens, SK-BR-3, SK-BR-3; cell killing (cytotoxic effect); read-out: LC50 SK-BR-3

| SMILES | CC50 |
| --- | --- |
| COc1cc2c(cc1O)CCn1c-2c(Br)c2c3cc(OC)c(O)cc3oc(=O)c21 [Compound 188] | 21.8 µM |

Same assay, conditions: Homo sapiens, SK-BR-3, SK-BR-3; total growth inhibition (cytostatic effect); read-out: TGI SK-BR-3

| SMILES | IC (TGI) |
| --- | --- |
| COc1cc2c(cc1O)CCn1c-2c(Br)c2c3cc(OC)c(O)cc3oc(=O)c21 [Compound 188] | 11.5 µM |
